This note sets out measurements from patent US8987193B2, “Nisin derivatives and the use thereof” (University College Cork—National University of Ireland, Cork, priority 2008, dated 2015).

Ends that are not written are not given here.

One assay has as its system L. monocytogenes EGDe. Nature of the assay: Deferred antagonism assay. The class given is cell-based. On the set-up: key: −, no inhibition; (+), clear zone directly above the colony; +, 1-5 mm zone; ++, 6-10 mm zone; +++. Particulars: nisin strain; Listeria monocytogenes EDGe. On the procedure: (§1) Deferred antagonism assays were performed by replicating strains on GM17 or GM17 x-gal agar plates and allowing them to grow overnight before overlaying with either GM17/BHI/TS/MH agar (0.75% w/v agar) seeded with the appropriate indicator strain. Zone size was calculated as the diameter of the zone of clearing minus the diameter of bacterial growth (5 mm) For higher throughput screening of N20PXX, XM21VX, XXK22T and XXX banks deferred antagonism assays were performed by replicating strains using a 96 pin replicator (Boekel) or spotting 5 μl of a fresh overnight culture on GM17 agar plates and allowing them to grow overnight. […] Additional sets of indicators were employed to further assess/reassess the bioactivity of a number of strains. […] For well-diffusion assays molten agar was cooled to 48° C. and seeded with the appropriate indicator strain. The inoculated medium was rapidly transferred into sterile Petri plates in 50 ml volumes, allowed to solidify and dried. Wells (4.6 mm in diameter) were then made in the seeded plates. Purified nisin and mutant nisins were resuspended in 0.005% acetic acid, serially diluted, 50 μl volumes were dispensed into the aforementioned wells and the plates incubated at 37° C. overnight. Bioactivity was expressed as arbitrary units/ml (AU/ml) and calculated as the reciprocal of the highest dilution that gave a definite zone multiplied by the conversion factor (i.e. 20 when 50 μl was used) (Ryan et al., 1996).

Assay [1] concerns 30 L. monocytogenes and 3 L. innocua strains. Nature of the assay: Deferred antagonism assay, collection of Listeria strains. The class given is cell-based. To be noted: of 30 L. monocytogenes and 3 L. innocua strains. On the procedure: as §1
The test system of a further assay is L. lactis CBC8. In words: Deferred antagonism assay. To be noted: producing strain. On the set-up: key: + = Enhanced bioactivity relative to control; − = Bioactivity equal to or less than control; NA = no activity evident. In kind it is cell-based. Put shortly:
(§2)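 Well-diffusion testing of purified nisin variants in 0.005% acetic acid, serially diluted, 37° C overnight; AU/ml = reciprocal of last dilution with definite zone × 20. Deferred antagonism: overnight GM17 colonies overlaid with seeded soft agar (0.75%); zone = clearing diameter minus 5 mm.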

The test system of the next assay is S. aureus CBC4. In words: Deferred antagonism assay. In kind it is cell-based. On the set-up: key: + = Enhanced bioactivity relative to control; − = Bioactivity equal to or less than control; NA = no activity evident. Particulars: producing strain. In short, it runs like this: as §2
A further assay concerns L. lactis CBC7. Nature of the assay: Deferred antagonism assay. In kind it is cell-based. On the set-up: key: + = Enhanced bioactivity relative to control; − = Bioactivity equal to or less than control; NA = no activity evident. To be noted: producing strain. In short, it runs like this: as §2
A further assay relates to C. sporogenes CBC5. In words: Deferred antagonism assay. To be noted: producing strain. More on the design: key: + = Enhanced bioactivity relative to control; − = Bioactivity equal to or less than control; NA = no activity evident. The class given is cell-based, Clostridium sporogenes.

On to “NisinA K22A (ITSISLCTPGCKTGALMGCNMATATCHCSIHVSK; not fully specified; also: lantibiotic: lanthionine rings and dehydro residues not placed; UniProt P13068 24-57, looked up, variant K22A) [nisin A derivative, hinge substitution K22A]”, for which the “Activity score (zone)” value with L. monocytogenes EGDe is reported as “+ (+, 1-5 mm zone)”. Moreover, the “number of strains with enhanced bioactivity (relative to the control)” value (from here on “number of strains … (relative to the control)”) in assay [1] is given as 16. Besides, the “number of strains with equal levels of bioactivity” value (“number of strains … of bioactivity” for short) in assay [1] was found to be 17. Further, the “Bioactivity relative to control” value is given as “+” with L. lactis CBC8, “−” in the assay with S. aureus CBC4, “−” with L. lactis CBC7 and “−” in the assay on C. sporogenes CBC5.
Take “NisinA M21G (ITSISLCTPGCKTGALMGCNGKTATCHCSIHVSK; not fully specified; also: lantibiotic: lanthionine rings and dehydro residues not placed; UniProt P13068 24-57, looked up, variant M21G) [nisin A derivative, hinge substitution M21G]”: in the assay with L. monocytogenes EGDe, the “Activity score (zone)” value is listed as “−”. In addition, the “number of strains … (relative to the control)” value in assay [1] amounted to 10. For the same substance, the “number of strains … of bioactivity” value in assay [1] is recorded as 19. In addition, the “number of strains with reduced activity” value in assay [1] stood at 4. In addition, the “Bioactivity relative to control” value with L. lactis CBC8 is “−”; in the assay on S. aureus CBC4, “+”; with L. lactis CBC7 it was “−”; with C. sporogenes CBC5 it was “+”.
Take “NisinA M21I (ITSISLCTPGCKTGALMGCNIKTATCHCSIHVSK; not fully specified; also: lantibiotic: lanthionine rings and dehydro residues not placed; UniProt P13068 24-57, looked up, variant M21I) [nisin A derivative, hinge substitution M21I]”: the “Activity score (zone)” value in the assay on L. monocytogenes EGDe is “+ (+, 1-5 mm zone)”. In addition, the “number of strains … (relative to the control)” value in assay [1] is given as 17. Moreover, the “number of strains … of bioactivity” value in assay [1] is listed as 15. The “number of strains with reduced activity” value in assay [1] was 1. Further, the “Bioactivity relative to control” value in the assay with L. lactis CBC8, in the assay with S. aureus CBC4, in the assay with L. lactis CBC7 and in the assay on C. sporogenes CBC5 was “+” throughout.
As for “NisinA M21S (ITSISLCTPGCKTGALMGCNSKTATCHCSIHVSK; not fully specified; also: lantibiotic nisin: dehydrated residues and thioether rings not placed; UniProt P13068 24-57, looked up, variant M21S) [nisin A derivative, hinge substitution M21S]”, the “Activity score (zone)” value in the assay with L. monocytogenes EGDe was “++ (++, 6-10 mm zone)”. Also, the “number of strains … (relative to the control)” value in assay [1] worked out at 26. Also, the “number of strains … of bioactivity” value in assay [1] amounted to 7. For the same substance, the “Bioactivity relative to control” value with L. lactis CBC8 is “+”; in the assay with S. aureus CBC4 it was “+”; in the assay on L. lactis CBC7 it was “−”; in the assay with C. sporogenes CBC5, “+”.
